Paper PMC10591454 (European journal of medicinal chemistry, 2021)
≈ marks a conversion by molar mass, not a printed value. Where two headings read alike, the source gives them in different places.

Columns and labels:
CYP3A4 = conditions: cited from earlier work
HBV [1] = test: HBV replication inhibition assay; type: cell-based, HBV genotype D; conditions: for activity at 10 µM: Hepatitis B virus, HepDES19, 72 h; for anti-HBV activity in words: initial screening, SAR discussion
HBV [2] = conditions: effective concentration 90%; cited from earlier work
[3] = test system: HBV DNA, HBsAg and pregenomic RNA; conditions: after 28 days of treatment with GLS4; cited from earlier work
HCV genotype 1b = conditions: read-out: GT1b EC50; HCV NS5A inhibitors; cited from earlier work
HCV genotype 1a = conditions: read-out: GT1a EC50; HCV NS5A inhibitors; cited from earlier work

C[C@@H](O[C@H]1OCCN(Cc2n[nH]c(=O)[nH]2)[C@H]1c1ccc(F)cc1)c1cc(C(F)(F)F)cc(C(F)(F)F)c1 [Aprepitant]
CYP3A4 inhibition in words (CYP3A4): moderate CYP3A4 inhibitor

Nc1ccn([C@@H]2CS[C@H](CO)O2)c(=O)n1 [Compound 3TC, lamivudine]
activity at 10 µM (HBV [1]; read-out: Minus DNA (%) (10μM)): 54.6%
activity at 10 µM (HBV [1]; read-out: Plus DNA (%) (10μM)): 16.2%

CCOC(=O)C1=C(CN2CCC3(CCNC3)C2=O)NC(c2nccs2)=NC1c1ccc(F)cc1Br (stereo not drawn) [Compound 5b, ethyl 4-(2-bromo-4-fluorophenyl)-6-((1-oxo-2,7-diazaspiro[4.4]nonan-2-yl)methyl)-2-(thiazol-2-yl)-1,4-dihydropyrimidine-5-carboxylate]
anti-HBV activity in words (HBV [1]): inactive

CCOC(=O)C1=C(CN2CC3(CCNC3)CC2=O)NC(c2nccs2)=NC1c1ccc(F)cc1Br (stereo not drawn) [Compound 5c, ethyl 4-(2-bromo-4-fluorophenyl)-6-((3-oxo-2,7-diazaspiro[4.4]nonan-2-yl)methyl)-2-(thiazol-2-yl)-1,4-dihydropyrimidine-5-carboxylate]
anti-HBV activity in words (HBV [1]): inactive

CCOC(=O)C1=C(CN2CCC3(CCNC3)CC2)NC(c2nccs2)=NC1c1ccc(F)cc1Br (stereo not drawn) [Compound 5e, ethyl 6-((2,8-diazaspiro[4.5]decan-8-yl)methyl)-4-(2-bromo-4-fluorophenyl)-2-(thiazol-2-yl)-1,4-dihydropyrimidine-5-carboxylate]
anti-HBV activity in words (HBV [1]): inactive

CCOC(=O)C1=C(CN2CCC3(CCNC3)C2)NC(c2nccs2)=NC1c1ccc(F)cc1Br (stereo not drawn) [Compound 5i, ethyl 6-((2,7-diazaspiro[4.4]nonan-2-yl)methyl)-4-(2-bromo-4-fluorophenyl)-2-(thiazol-2-yl)-1,4-dihydropyrimidine-5-carboxylate]
anti-HBV activity in words (HBV [1]): inactive or less potent

CCOC(=O)C1=C(CN2CCOCC2)NC(c2nccs2)=N[C@H]1c1ccc(F)cc1Br [GLS4, Ethyl4-(2-bromo-4-fluorophenyl)-6-(morpholinomethyl)-2-(thiazol-2-yl)-1,4-dihydropyrimidine-5-carboxylate]
EC90 (HBV [2]): 0.0557 µg/mL (≈ 0.109 µM)
HBV DNA, HBsAg and pregenomic RNA in patients [3]: strong downward trend

COC(=O)N[C@H](C(=O)N1CC2(CC2)C[C@H]1c1nc(-c2ccc3c(c2)C(F)(F)c2cc(-c4ccc5[nH]c([C@@H]6[C@H]7CC[C@H](C7)N6C(=O)[C@@H](NC(=O)OC)C(C)C)nc5c4)ccc2-3)c[nH]1)C(C)C [Ledipasvir]
EC50 (HCV genotype 1b): 0.004 nM
EC50 (HCV genotype 1a): 0.031 nM

C[C@@H](OC[C@@]1(c2ccccc2)CC[C@]2(CCC(=O)N2)CN1)c1cc(C(F)(F)F)cc(C(F)(F)F)c1 [Rolapitant]
CYP3A4 inhibition in words (CYP3A4): no inhibitory effect
